Assay results published in EP1500403A1, “PREVENTIVE/REMEDY FOR DIABETES” (Ajinomoto Co., Inc., priority 2002, dated 2003).

Columns and labels:
[1] = system: glucose-loaded rats; experiment: Blood glucose time course after oral glucose loading in rats (Example I); format: in vivo; conditions: Wistar rats, glucose 1 g/kg p.o.
Procedure: Wistar rats (age of 7 weeks; male) were divided into groups with matched body weights. After 17-hour starvation, glucose was orally given at 1 g/kg to the animals. Immediately after the administration, the inhibitor A of renal glucose reabsorption or the inhibitor B of renal glucose reabsorption (A at 30 mg/kg or 60 mg/kg; B at 30 mg/kg or 80 mg/kg) or glibenclamide (1 mg/kg or 2 mg/kg) or nateglinide (50 mg/kg or 80 mg/kg) was orally given. Additionally, a group on the combined use of both of an inhibitor of renal glucose reabsorption and a hypoglycemic agent was also prepared. A vehicle was orally given to a control group after glucose administration.
Blood glucose was measured in a time course.

[2] = system: glucose-loaded mice; experiment: Blood glucose time course after oral glucose loading in KK mice (Example II); format: in vivo; conditions: glucose 1 g/kg p.o.
Procedure: KK mice (age of 25 weeks; male) fed with a commercially available high-calories feed for breeding (CMF; Oriental Yeast) were divided into groups with matched body weights. After starvation for 17 hours, glucose was orally given at 1 g/kg. Immediately thereafter, the inhibitor A of renal glucose reabsorption (30 mg/kg or 45 mg/kg) or metformin (200 mg/kg or 300 mg/kg) was orally given. Additionally, a group given with the inhibitor A of renal glucose reabsorption (30 mg/kg) and metformin (200 mg/kg) was prepared. A vehicle was orally given to a control group after glucose dosing.
Blood glucose level was assayed in a time course.

[3] = system: Type 2 diabetes model Zucker diabetic fatty rats; experiment: Insulin content in pancreas after repeated dosing in Zucker diabetic fatty rats, ELISA (Example V); format: in vivo; conditions: twice daily p.o., day 39, starved 18 hours, inhibitor A 30 mg/kg, metformin 200 mg/kg, or both, ELISA of pancreas homogenates (Fig. 5)
Procedure: The agents were orally given twice daily at the same time period as in the case of the groups administered with a single one of these agents. Only a vehicle was orally given twice daily to the animals in a control group. On day 39 from the start of administration, the animals were starved for 18 hours. Then, pancreas was resected from the animals, for the assay of insulin in pancreas homogenates by ELISA, to compare the groups in terms of insulin content in pancreas.

[4] = system: Type 2 diabetic model GK rats; experiment: Blood glucose after repeated once daily dosing in GK rats (Example III); format: in vivo; conditions: once daily p.o., day 25, glibenclamide 3 mg/kg, inhibitor A 30 mg/kg, or both, vs vehicle-dosed group (Fig. 4)
Procedure: These agents were orally given once daily at the same time period as in the group administered with a single one agent. Only a vehicle was given orally to a control group. On day 25 after the start of administration, blood glucose was assayed sequentially, to compare the groups in terms of the resulting blood glucose levels.

[5] = system: Renal brush border membrane; experiment: Assessment of inhibitory action of glucose uptake, 14C-D-glucose (Test Example 1A); format: biochemical, rat; conditions: incubation 37 °C 30 minutes, 14C-D-glucose one minute
Procedure: Test compounds were dissolved in 100 mM mannitol-10 mM HEPES/Tris, pH 7.4 to prepare solutions at various concentrations.
Renal brush border membrane was prepared from a rat kidney, to which a solution of a test compound was added for incubation at 37 °C for 30 minutes. Then, ^14C-D-glucose was added for incubation for one minute. A solution containing 1 mM phlorizin was used to terminate the glucose uptake reaction. The radioactivity ^14C of ^14C-D-glucose incorporated in the renal brush border membrane was counted with a liquid scintillation counter. The glucose uptake independent on sodium was reduced from the glucose uptake in a control group or a test group, to calculate the inhibition intensity.

[6] = system: Male Wistar rats; experiment: Evaluation of urine sugar excretion action in rats (Test Example 1); format: in vivo; conditions: 100 mg/kg p.o. in olive oil, urine collected 24 hours, per individual per day
Procedure: Male Wistar rats aged 5 weeks (purchased from Charles River Japan, Inc.) were acclimatized in metabolic cages for one week, for use at this experiment. The test compounds suspended in olive oil were prepared into a 20 mg/ml solution to a dose of 5 ml per 1 kg rat body weight.
After the rats were starved for 4 hours, the test compounds were orally given at 100 mg/kg to the rats at 11 am. Immediately after dosing until 24 hours later, urine was collected. The volume of urine was measured. Then, urine sugar concentration was assayed by glucose oxidase method, to calculate the glucose excretion into urine per individual per day.

[7] = glibenclamide 1 mg/kg, inhibitor A 30 mg/kg, or both, p.o., vs vehicle group (Fig. 1)
[8] = inhibitor A 30 mg/kg p.o., vs control group (Fig. 3)

CCc1ccc(Cc2c(O[C@@H]3O[C@H](CO)[C@@H](O)[C@H](O)[C@H]3O)nn(C3CCC3)c2C(F)(F)F)cc1 [1'-cyclobutyl-4'-[(4-ethylphenyl)methyl]-5'-trifluoromethyl-1H-pyrazole-3'-o-β-D-glucopyranoside]
blood glucose level 120 minutes after glucose loading and thereafter [1, 7]: did not lower the blood glucose level 120 minutes after glucose loading and thereafter as greatly as glibenclamide did | hyperglycemia / blood glucose level immediately after glucose loading (30 minutes) [1, 7]: suppressed hyperglycemia | pattern of glycemic suppression at increased dose ([1]; glibenclamide 2 mg/kg or inhibitor A 60 mg/kg p.o., vs lower dose (Fig. 1)): did not change | blood glucose level 2 hours later and thereafter [2, 8]: could not suppress the blood glucose level | hyperglycemia 60 minutes after glucose loading [2, 8]: could suppress hyperglycemia | increase of blood glucose / hyperglycemia 30 minutes after glucose loading ([2]; metformin 200 mg/kg or inhibitor A 30 mg/kg p.o., vs control group (Fig. 3)): could suppress hyperglycemia | pattern of glycemic suppression at elevated dose ([2]; metformin 300 mg/kg or inhibitor A 45 mg/kg p.o., vs lower dose (Fig. 3)): did not change | insulin content in pancreas [3]: no difference was observed | blood glucose level [4]: significantly lowered

CSc1ccc(Cc2c(O[C@@H]3O[C@H](CO)[C@@H](O)[C@H](O)[C@H]3O)n[nH]c2C(F)(F)F)cc1 [Compound of Production Example 1-A, 4-((4-methylthiophenyl)methyl)-5-(trifluoromethyl)-1H-pyrazole-3-o-β-D-glucopyranoside]
Inhibition intensity (concentration of test compound) ([5]; 10 µM test compound): 84 % (10 µM)

CCc1ccc(Cc2c(O[C@@H]3O[C@H](COC(=O)OC)[C@@H](O)[C@H](O)[C@H]3O)nn(C3CCC3)c2C(F)(F)F)cc1 [Compound of Production Example 2, 1'-cyclobutyl-4'-[(4-ethylphenyl)methyl]-5'-trifluoromethyl-1H-pyrazole-3'-o-(6-carbomethoxy)-β-D-glucopyranoside]
Urine sugar excretion [6]: 656 mg

CCc1ccc(Cc2c(O[C@@H]3O[C@H](C(=O)O)[C@@H](O)[C@H](O)[C@H]3O)n[nH]c2C(F)(F)F)cc1 [Compound of Production Example 2-A, 4-((4-ethylphenyl)methyl)-5-(trifluoromethyl)-1H-pyrazol-3-yl-β-D-glucopyranoside uronic acid]
Inhibition intensity (concentration of test compound) ([5]; 100 µM test compound): 30 % (100 µM)

CCc1ccc(Cc2c(O[C@@H]3O[C@H](COC(=O)OC)[C@@H](O)[C@H](O)[C@H]3O)nn(C3CCCC3)c2C(F)(F)F)cc1 [Compound of Production Example 4, 1'-cyclopentyl-4'-[(4-ethylphenyl)methyl]-5'-trifluoromethyl-1H-pyrazole-3'-o-(6-carbomethoxy)-β-D-glucopyranoside]
Urine sugar excretion [6]: 452 mg
